Test results as given in patent US8937064B2, “Pyrazolo[1,5-a]pyrimidines useful as JAK2 inhibitors” (Vertex Pharmaceuticals Incorporated, priority 2007, dated 2015).

Legend:
JAK3 = target: T1, JAK3 (Homo sapiens, UniProt P52333); experiment: JAK3 Inhibition Assay; format: biochemical; details: 1 nM JAK3, 1 μM poly(Glu)4Tyr, 5 μM ATP, 25° C., 33P incorporation
T1 sequence (P52333 1-1124): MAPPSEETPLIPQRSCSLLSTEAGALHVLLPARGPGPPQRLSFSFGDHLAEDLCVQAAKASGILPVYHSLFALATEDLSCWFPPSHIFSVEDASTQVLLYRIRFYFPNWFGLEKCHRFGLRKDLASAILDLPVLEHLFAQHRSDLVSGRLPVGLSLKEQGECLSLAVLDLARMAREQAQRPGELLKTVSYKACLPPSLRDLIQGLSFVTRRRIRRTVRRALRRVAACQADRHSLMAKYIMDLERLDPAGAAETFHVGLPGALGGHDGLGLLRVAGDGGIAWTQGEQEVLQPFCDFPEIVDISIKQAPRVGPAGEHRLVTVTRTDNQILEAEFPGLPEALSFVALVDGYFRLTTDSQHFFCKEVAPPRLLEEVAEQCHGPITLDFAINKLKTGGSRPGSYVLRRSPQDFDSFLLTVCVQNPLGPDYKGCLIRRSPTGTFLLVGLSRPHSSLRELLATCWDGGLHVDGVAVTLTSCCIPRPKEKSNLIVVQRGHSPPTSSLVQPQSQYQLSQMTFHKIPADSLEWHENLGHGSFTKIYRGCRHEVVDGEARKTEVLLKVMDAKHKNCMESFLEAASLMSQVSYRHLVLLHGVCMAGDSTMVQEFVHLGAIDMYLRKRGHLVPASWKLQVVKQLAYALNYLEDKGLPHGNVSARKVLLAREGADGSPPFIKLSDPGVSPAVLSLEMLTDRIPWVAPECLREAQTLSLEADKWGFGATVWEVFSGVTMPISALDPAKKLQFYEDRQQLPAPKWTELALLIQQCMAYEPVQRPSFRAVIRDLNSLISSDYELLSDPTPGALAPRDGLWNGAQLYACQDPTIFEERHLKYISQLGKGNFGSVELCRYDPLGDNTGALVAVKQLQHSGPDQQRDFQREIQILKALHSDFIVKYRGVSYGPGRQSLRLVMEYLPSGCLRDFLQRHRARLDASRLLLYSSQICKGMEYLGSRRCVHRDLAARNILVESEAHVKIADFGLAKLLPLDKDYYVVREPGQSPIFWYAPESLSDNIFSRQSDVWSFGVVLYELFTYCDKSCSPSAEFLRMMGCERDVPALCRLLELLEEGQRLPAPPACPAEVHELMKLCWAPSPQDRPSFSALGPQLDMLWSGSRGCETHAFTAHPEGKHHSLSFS

JAK-2 enzyme = JAK-2 enzyme (Homo sapiens, UniProt O60674); experiment: JAK2 Inhibition Assay
Sequence of JAK-2 enzyme (O60674 whole entry): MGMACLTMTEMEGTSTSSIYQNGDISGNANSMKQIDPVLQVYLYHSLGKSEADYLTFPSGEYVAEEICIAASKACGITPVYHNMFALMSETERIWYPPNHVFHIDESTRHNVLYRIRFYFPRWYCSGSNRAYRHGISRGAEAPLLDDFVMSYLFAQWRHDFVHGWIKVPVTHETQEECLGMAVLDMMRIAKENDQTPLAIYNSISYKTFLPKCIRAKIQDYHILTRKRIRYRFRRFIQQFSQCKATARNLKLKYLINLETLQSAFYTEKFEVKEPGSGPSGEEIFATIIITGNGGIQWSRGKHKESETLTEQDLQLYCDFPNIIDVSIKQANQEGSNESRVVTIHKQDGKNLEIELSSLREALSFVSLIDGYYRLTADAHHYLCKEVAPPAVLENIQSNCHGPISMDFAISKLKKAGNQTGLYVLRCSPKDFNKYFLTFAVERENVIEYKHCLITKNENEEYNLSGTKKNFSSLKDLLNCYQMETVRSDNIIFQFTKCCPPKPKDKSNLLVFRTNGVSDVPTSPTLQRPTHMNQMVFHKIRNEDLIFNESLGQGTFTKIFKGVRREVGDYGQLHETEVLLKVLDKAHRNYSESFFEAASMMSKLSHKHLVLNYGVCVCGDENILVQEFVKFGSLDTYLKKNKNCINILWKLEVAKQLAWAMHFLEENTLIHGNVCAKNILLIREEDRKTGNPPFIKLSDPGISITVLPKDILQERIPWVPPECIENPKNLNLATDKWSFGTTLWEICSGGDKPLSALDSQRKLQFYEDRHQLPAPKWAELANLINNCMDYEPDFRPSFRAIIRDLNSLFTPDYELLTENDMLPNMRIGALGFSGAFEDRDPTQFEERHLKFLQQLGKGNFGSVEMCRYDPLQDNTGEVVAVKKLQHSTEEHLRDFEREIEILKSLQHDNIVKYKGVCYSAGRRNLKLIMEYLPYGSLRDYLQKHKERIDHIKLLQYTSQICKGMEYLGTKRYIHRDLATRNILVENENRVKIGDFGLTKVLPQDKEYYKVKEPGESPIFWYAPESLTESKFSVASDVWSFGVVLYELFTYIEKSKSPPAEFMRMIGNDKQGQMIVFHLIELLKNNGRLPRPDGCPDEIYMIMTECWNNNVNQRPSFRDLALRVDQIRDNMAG

C[C@H](Nc1cc(-c2cnn3cccnc23)nc(OCCCNCc2ccncc2)n1)c1ccc(F)cc1F [Compound 220] gave a Ki (JAK3) of 10 to 100 nM and a Ki (JAK-2 enzyme) of less than 10 nM.
In the case of C[C@H](Nc1cc(-c2c(N)nn3cccnc23)nc(N2CCOCC2)n1)c1ccc(F)cc1 [Compound 96], the Ki (JAK3) is reported as 10 to 100 nM and the Ki (JAK-2 enzyme) is reported as less than 10 nM.
For C[C@H](Nc1cc(-c2c(N)nn3cccnc23)nc(OCC2COC(C)(C)O2)n1)c1ccc(F)cc1 (stereo partly drawn) [Compound 168], the Ki (JAK3) was 10 to 100 nM and the Ki (JAK-2 enzyme) was less than 10 nM.
C[C@H](Nc1cc(-c2cnn3cccnc23)nc(OC2CCNC2)n1)c1ccc(F)cc1F (stereo partly drawn) [Compound 218] gave a Ki (JAK3) of 100 to 500 nM and a Ki (JAK-2 enzyme) of 10 to 100 nM.
C[C@H](Nc1cc(-c2cnn3cccnc23)nc(OCC(C)(C)N(C)C)n1)c1ccc(F)cc1F [Compound 193] was tested, and the Ki (JAK3) was 100 to 500 nM and the Ki (JAK-2 enzyme) was less than 10 nM.
In the case of C[C@H](Nc1cc(-c2c(N)nn3cccnc23)nc(OCCCC2CCCC2)n1)c1ccc(F)cc1 [Compound 177], the Ki (JAK3) is reported as 500 to 5000 nM and the Ki (JAK-2 enzyme) is reported as 100 to 500 nM.
Nc1nn2cccnc2c1-c1cc(OC(c2ccccc2)C2CC2)ncn1 (stereo not drawn) [Compound 66] was tested, and the Ki (JAK3) was greater than 5000 nM and the Ki (JAK-2 enzyme) was 500 to 5000 nM.
With O=C(Nc1ccnc(-c2cnn3cccnc23)c1)c1ccccc1F [Compound 228] the Ki (JAK3) was 500 to 5000 nM and the Ki (JAK-2 enzyme) was 100 to 500 nM.
In the case of CCC(C#N)Oc1nc(N[C@@H](C)c2ccc(F)cc2F)cc(-c2cnn3cccnc23)n1 (stereo partly drawn) [Compound 192], the Ki (JAK3) is reported as 10 to 100 nM and the Ki (JAK-2 enzyme) is reported as less than 10 nM.
CC1CC1COc1nc(N[C@@H](C)c2ccc(F)cc2)cc(-c2c(N)nn3cccnc23)n1 (stereo partly drawn) [Compound 158] gave a Ki (JAK3) of 100 to 500 nM and a Ki (JAK-2 enzyme) of 10 to 100 nM.
CC(C)CCCOc1nc(N[C@@H](C)c2ccc(F)cc2)cc(-c2c(N)nn3cccnc23)n1 [Compound 167] was tested, and the Ki (JAK3) was 500 to 5000 nM and the Ki (JAK-2 enzyme) was 10 to 100 nM.
For CC(C)[C@H](Nc1cc(-c2cnn3cccnc23)ncn1)c1ccc(F)cc1F [Compound 121], the Ki (JAK3) was 10 to 100 nM and the Ki (JAK-2 enzyme) was less than 10 nM.
With C[C@H](Nc1cc(-c2c(N)nn3cccnc23)nc(OCC2CCCC2)n1)c1ccc(F)cc1 [Compound 176] the Ki (JAK3) was 100 to 500 nM and the Ki (JAK-2 enzyme) was 10 to 100 nM.
C[C@H](Nc1cc(-c2c(N)nn3cccnc23)nc(OCCN2CCOCC2)n1)c1ccc(F)cc1 [Compound 109] gave a Ki (JAK3) of 10 to 100 nM and a Ki (JAK-2 enzyme) of less than 10 nM.
In the case of C=COCCCCOc1nc(N[C@@H](C)c2ccc(F)cc2)cc(-c2c(N)nn3cccnc23)n1 [Compound 174], the Ki (JAK3) is reported as 100 to 500 nM and the Ki (JAK-2 enzyme) is reported as 10 to 100 nM.
Molecule C[C@H](Nc1cc(-c2cnn3cccnc23)nc(OCCN2CCCC2)n1)c1ccc(F)cc1F [Compound 204] has a Ki (JAK3) of 10 to 100 nM and a Ki (JAK-2 enzyme) of less than 10 nM.
In the case of C[C@H](c1ccccc1)N(C)c1cc(-c2c(N)nn3cccnc23)ncn1 [Compound 20], the Ki (JAK3) is reported as 100 to 500 nM and the Ki (JAK-2 enzyme) is reported as 10 to 100 nM.
CC(C#N)Oc1nc(N[C@@H](C)c2ccc(F)cc2F)cc(-c2cnn3cccnc23)n1 (stereo partly drawn) [Compound 201] showed a Ki (JAK3) of 10 to 100 nM and a Ki (JAK-2 enzyme) of less than 10 nM.
